This is an account of results in PMC4820820, “CETSA screening identifies known and novel thymidylate synthase inhibitors and slow intracellular activation of 5-fluorouracil” (Nature Communications, 2016).

Several values for one entry are separate records, joined by “and”; a condition that tells them apart may be missing. Identical values can stand only once. Like-named read-outs stand apart in the source and are kept apart here.

In data set [1] the target is TS (Homo sapiens, UniProt P04818). Put plainly: Thermal shift in vitro assay on recombinant protein. It counts as binding. Also on record: His6 tag with TEV site (vector-encoded by pNIC28-Bsa4); made in house; host or cells: Rosetta BL21-DE3 Escherichia coli. Particulars: nucleoside without enzyme treatment. The procedure:
The assay was performed on the iCycler iQ Real Time PCR Detection System (Bio-Rad), using the 96-well thin-wall PCR plate (Bio-Rad). The experiment was conducted in a buffer containing 20 mM HEPES at pH 7.5 and 150 mM NaCl. A total volume of 25 μl solution containing 0.2 mg ml^−1 protein, compounds and × 5 Sypro Orange dye (Invitrogen) diluted from 5,000 × stock was dispensed into the 96-well plate. The same amount of DMSO was added in the control wells. The plates were sealed with Microseal B adhesive sealer (Bio-Rad) and heated in iCycler from 25 to 80 °C (56 heating cycles in 28 min). Fluorescent filter used for Sypro Orange measurements was λexcitation=492 nm and λemission=610 nm. The calculation of the midpoint of the curves (Tm) was performed using the software package XLfit from IDBS within microsoft excel.
Decitabine at a concentration of 1 mM was incubated with 1 mg ml^−1 of recombinant DCK and 2.5 mM ATP in a buffer of 50 mM Tris at pH 7.5, 150 mM NaCl and 0.5 mM MgCl2 at room temperature for 60 min to generate the corresponding monophosphates. To probe for nucleotide deamination the samples were further treated with 1 mg ml^−1 of recombinant DCTD in the presence of 1 mM ATP and 10 μM ZnCl2 for 20 min at room temperature. After incubation, the samples were heated at 95 °C for 10 min and centrifuged for 10 min at the highest speed at 4 °C using a benchtop centrifuge. The supernatant was tested without dilution in thermal shift in vitro assays and the TS enzyme inhibition assay. The supernatants from samples without nucleoside were used as the treatment controls.

The target in data set [2] is T1, human thymidylate synthase (TS) (Homo sapiens, UniProt P04818).
T1 construct: screening in live, non-engineered cells expressing thymidylate synthase; endogenous in cells; host or cells: K562 (human myelogenous leukemia) cells
Put plainly: CETSA primary screen / single-concentration retest, AlphaScreen, live K562 cells. It counts as cell-based. Particulars: for % stabilization in screen at 50 µM: K562, 2 h, read-out: % stabilization in screen. The protocol: Compounds were placed in columns 1–22. […] At the day of the experiment the plates were allowed to thaw for 30 min followed by a brief centrifugation step (1,000 × g for 1 min) prior to removal of the seal. The compounds were then diluted with 20 μl supplemented cell culture medium using a Multidrop Combi reagent dispenser (Thermo Scientific). Finally 5 μl of the diluted compounds were transferred to a 384 well hardshell PCR plate (HSR480, BIORAD) using a Bravo liquid handling platform equipped with a 384-well head (Agilent). […] The final concentration of DMSO in the assay was 0.5% in all samples.
(§1) The screen procedure started with the addition of 5 μl of a suspension of K562 cells at a density of 10 million cells per ml to all wells of a 384 well hardshell PCR plate (HSR480, BIORAD) using an electronic multichannel pipette (Biohit). […] For the time-course experiments the incubation times were altered to include also 10 min, 30 min and 6 h. […] After the incubation step the plates were transiently heated at 50 °C for 3 min followed by a controlled cooling to 20 °C for 1 min using a real-time PCR machine (LightCycler480 system, Roche). Plate handling was then as described above for the thermal aggregation experiments. The data were analyzed using microsoft excel and GraphPad Prism 6.
(§2) A calculation of the average and standard error of means for each set of controls also allowed an illustration of how these responses varied over the 32 screening plates. The Z′ factor[38] is commonly used as a measure of how well the assay separates between the controls and this was calculated as described based on the calculated averages and standard deviations of the controls on a per plate basis. For the Tagg shift and the […] experiments the data were analyzed in GraphPad Prism using the Boltzmann sigmoid equation and the saturation binding curve (rectangular hyperbola; binding isotherm) function, respectively. As already discussed[14] these methods make use of equilibrium models for data analysis although the methodology depends on the irreversible aggregation of denatured material. For this reason we refer to the observed responses as apparent and isothermal dose-response fingerprints and are careful with any quantitative interpretations, being well aware of their dependency on experimental conditions. Experiments are on-going to address the quantitative interpretation of CETSA data.
A general note: Alpha assays give light when donor and acceptor beads are brought close together.

Data set [3] addresses T1, human thymidylate synthase (TS). Put plainly: ITDRF CETSA at 50 °C, AlphaScreen detection, live K562 cells. The format is cell-based. Particulars: for EC50: 2 h preincubation. The protocol:
For the […] experiments 11-point dose-response curves with three-fold difference in concentration between wells were generated using the Bravo liquid handling system (all serial dilutions were done in 100% DMSO). […] The concentration of DMSO was 0.5% in all samples. […] The assay ready plates were prepared as outlined above for the screen.
as §1, §2

For data set [4] the target is unchanged. Put plainly: CETSA Tagg curves, AlphaScreen detection, live K562 cells. It counts as cell-based. The settings on record: 2 h preincubation, 3 min heating, DMSO control 46.7±0.2 °C. The procedure:
The data were analyzed using microsoft excel and GraphPad Prism 6.
as §2

Data set [5] can be described thus: Intracellular compound and metabolite concentrations by LC-MS/MS in K562 cells. The settings on record: K562 cells incubated with 100 µM 5-FU, first 6 h. It counts as in vitro ADME, human. The protocol: Intracellular concentrations of compounds were measured as previously described. Briefly, K562 cells were incubated with the compounds for a predefined time at 37 °C in a 5% CO2 atmosphere. After incubation, the cells were centrifuged (300 × g for 5 min) and a medium sample (supernatant) was collected and diluted 1:10 in a 50 nM warfarin solution (internal standard). The cells were washed with phosphate buffered salt solution and lysed with methanol. Methanol was evaporated and the cell samples were reconstituted in 50 nM warfarin. Samples were analyzed with LC–MS/MS with electrospray ionization in negative mode with transitions monitored as listed in Table 2.

[6] abbreviates: 50 μM compound, 2 h preincubation, 50 °C, 0% = DMSO, 100% = 100 nM raltitrexed.
Setting [7] is: 50 °C, unit taken from curve axis log [cmp] (M), read-out: ITDRF CETSA (hit confirmation).

T1 sequence (P04818 2-313 limits assumed): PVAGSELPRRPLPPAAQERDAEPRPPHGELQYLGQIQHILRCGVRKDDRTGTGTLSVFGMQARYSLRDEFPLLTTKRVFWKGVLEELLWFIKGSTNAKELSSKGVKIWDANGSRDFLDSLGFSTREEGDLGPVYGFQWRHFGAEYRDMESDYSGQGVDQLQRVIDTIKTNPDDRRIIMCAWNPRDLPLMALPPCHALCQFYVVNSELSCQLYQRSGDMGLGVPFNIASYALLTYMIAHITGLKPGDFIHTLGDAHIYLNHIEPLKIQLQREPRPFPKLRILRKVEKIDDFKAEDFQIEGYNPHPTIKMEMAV
TS, sequence (P04818 whole entry): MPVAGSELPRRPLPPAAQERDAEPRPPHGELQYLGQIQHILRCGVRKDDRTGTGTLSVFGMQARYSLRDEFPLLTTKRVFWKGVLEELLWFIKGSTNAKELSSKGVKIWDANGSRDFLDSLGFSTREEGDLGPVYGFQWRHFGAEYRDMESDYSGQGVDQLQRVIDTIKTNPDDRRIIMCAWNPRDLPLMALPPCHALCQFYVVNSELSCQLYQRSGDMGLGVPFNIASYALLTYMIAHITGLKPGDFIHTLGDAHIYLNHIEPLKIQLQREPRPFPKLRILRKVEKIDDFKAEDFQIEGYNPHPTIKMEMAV

In the case of `O=c1[nH]c(=O)n([C@H]2C[C@H](O)[C@@H](CO)O2)cc1F` [floxuridine, 5-fluorodeoxyuridine], the “stabilization of recombinant TS in thermal shift assay” value in data set [1] is given as “did not stabilize”. The % stabilization in screen at 50 µM in data set [2] (setting [6]) came to 64%. The “concentration giving stabilization of TS (CETSA)” value in data set [3] (10 min of pre-incubation) is recorded as “low nM”. Besides, the EC50 in data set [3] (setting [7]) was 6.61e-11 M; in data set [3] (ITDRFCETSA EC50 (half-maximal stabilization of TS), 50 °C for 3 min, read-out: […] EC50 (half-maximal stabilization of TS)), 6.5e-11 M and 4.7e-11 M. For the same molecule, the “apparent Tagg of TS” value in data set [4] (15 μM floxuridine) is “above 65 °C”.
Consider `CCc1nc(N)nc(N)c1-c1ccc(Cl)cc1` [CBK041886, Pyrimethamine, reference compound], for which the % stabilization in screen at 50 µM in data set [2] came out at 76%. The EC50 in data set [3] (setting [7]) worked out at 8.38e-06 M.
For the molecule `O=c1[nH]c(=O)n([C@H]2C[C@H](O)[C@@H](CO)O2)cc1C(F)(F)F` [TFT, 5-trifluoro-2′-deoxythymidine], the “stabilization of recombinant TS in thermal shift assay” value in data set [1] was “did not stabilize”. In data set [2], the % stabilization in screen at 50 µM is 66%. Also, the EC50 in data set [3] (setting [7]) was 3.18e-10 M.
Take `O=c1[nH]c(=O)n([C@@H]2O[C@H](CO)[C@@H](O)[C@H]2O)cc1F` [5-fluorouridine]: the EC50 in data set [3] (50 °C for 3 min, read-out: […] EC50 (half-maximal stabilization of TS)) stood at 4.7e-08 ± 1.5e-08 M.
On to `CC#Cc1cn([C@H]2C[C@@H](O)[C@@H](CO)O2)c(=O)[nH]c1=O` [CBK201182], for which the “% stabilization in screen” value in data set [2] (setting [6]) amounted to 90%. For the same molecule, in data set [3] (setting [7]), the EC50 was found to be 2.28e-05 M.
As for `Cc1cc(C)c(Oc2nc(=O)n([C@H]3C[C@@H](O)[C@@H](CO)O3)cc2F)c(C)c1` [CBK201184], the “% stabilization in screen” value in data set [2] (setting [6]) is on record as 66%. Besides, in data set [3] (setting [7]), the EC50 came out at 9.17e-06 M.
In the case of `COCc1cn(C2CC(O)C(CO)O2)c(=O)[nH]c1=O` (centres unmarked) [CBK201230], in data set [2] (setting [6]), the “% stabilization in screen” value is reported as 23%. Besides, in data set [3] (setting [7]), the EC50 is 1.42e-07 M.
The like results for `Nc1nc(=O)n([C@H]2C[C@@H](O)[C@@H](CO)O2)cc1O` [CBK201221] were, in that order, 22% and 3.43e-07 M.
As for `C#Cc1cn([C@H]2C[C@H](O)[C@@H](CO)O2)c(=O)[nH]c1=O` [CBK201207, 5-ethynyl-2′-deoxyuridine, reference compound], in data set [2] (setting [6]), the % stabilization in screen at 50 µM worked out at 102%. Further, in data set [3] (setting [7]), the EC50 turned out to be 1.41e-09 M.
As to `O=c1[nH]cc(F)c(=O)[nH]1` [Compound 5-FU, 5-fluorouracil], the “intracellular levels of FdUMP” value in data set [5] is listed as “undetectable”. In data set [2], the % stabilization in screen at 50 µM stood at 48%. The EC50 in data set [3] (50 °C for 3 min, read-out: […] apparent EC50) came to 1.9e-05 ± 4e-06 M.
Turning to `O=c1ccn([C@H]2C[C@H](O)[C@@H](CO)O2)c(=O)[nH]1` [deoxyuridine], in data set [1], the “stabilization of recombinant TS in thermal shift assay” value is “did not stabilize”.
For `Cc1nc2ccc(CN(C)c3ccc(C(=O)N[C@@H](CCC(=O)O)C(=O)O)s3)cc2c(=O)[nH]1` [raltitrexed], in data set [4] (1 μM raltitrexed), the “apparent Tagg of TS” value was “above 65 °C”.
As for `COC1C(O)C(CO)OC1n1cc(C)c(=O)[nH]c1=O` (centres unmarked) [CBK201251], the “% stabilization in screen” value in data set [2] (setting [6]) is reported as -1%.
For the molecule `O=c1ncccn1[C@@H]1O[C@H](CO)[C@H](O)C1O` (some centres unmarked) [CBK201195], in data set [2] (setting [6]), the “% stabilization in screen” value came out at 22%.
